# Test results: patent publication US8309582B2, “Small molecule Bcl-Xl/Bcl-2 binding inhibitors” (The Ohio State University Research Foundation, priority 2004, dated 2012)
# Read-outs that look alike come from different tables or passages of the source.
# Tests used:
# Bcl-xL = molecular target: T1, Bcl-xL (Homo sapiens, UniProt Q07817); assay: Competitive fluorescence polarization assay, displacement of Flu-BakBH3 peptide from Bcl-xL; assay type: binding
# T1 construct: fused on or other part: His tag
# T1 sequence (Q07817 1-209 limits assumed): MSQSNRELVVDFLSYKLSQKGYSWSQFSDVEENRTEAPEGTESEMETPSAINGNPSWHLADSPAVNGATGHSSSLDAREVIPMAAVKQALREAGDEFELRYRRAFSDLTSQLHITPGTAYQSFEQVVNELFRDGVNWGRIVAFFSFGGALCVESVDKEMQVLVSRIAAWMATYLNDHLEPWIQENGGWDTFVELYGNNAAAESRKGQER
# Procedure: (§1) Competitive Fluorescence Polarization Assay. The binding affinity of the test agent to Bcl-2 and Bcl-xL was analyzed by a competitive fluorescence polarization assay, in which the ability of the agent to displace the binding of a Bak BH3-domain peptide to either Bcl-2 or Bcl-xL was determined. Flu-BakBH3, a Bak-BH3 peptide labeled at the N-terminus with fluorescein, was purchased from Genemed Synthesis (San Francisco, Calif.). C-Terminal-truncated, His-tagged Bcl-xL was purchased from EMD Biosciences (San Diego, Calif.), and soluble GST-fused Bcl-2 was obtained from Santa Cruz (Santa Cruz, Calif.). The KD determination was carried out in a dual-pathlength quartz cell with readings taken at […] at room temperature using a luminescence spectrometer according to an established procedure (17). Determination of IC50 values. Data from cell viability and FP assays were analyzed by using the CalcuSyn software (Biosoft, Ferguson, Mo.) to determine IC50 values, in which the calculation was based on the medium effect equation (18), i.e., Log(fa/fu)=m log(D)−m log(Dm) (equation 1), where fa and fu denote fraction affected and unaffected, respectively; m represents the Hill-type coefficient signifying the sigmoidicity of the dose-effect curve; D and Dm are the dose used and IC50, respectively.
# Bcl-2 = Bcl-2 (Homo sapiens, UniProt P10415); assay: Competitive fluorescence polarization assay, displacement of Flu-BakBH3 peptide from Bcl-2; assay type: binding
# Bcl-2, sequence (P10415 whole entry): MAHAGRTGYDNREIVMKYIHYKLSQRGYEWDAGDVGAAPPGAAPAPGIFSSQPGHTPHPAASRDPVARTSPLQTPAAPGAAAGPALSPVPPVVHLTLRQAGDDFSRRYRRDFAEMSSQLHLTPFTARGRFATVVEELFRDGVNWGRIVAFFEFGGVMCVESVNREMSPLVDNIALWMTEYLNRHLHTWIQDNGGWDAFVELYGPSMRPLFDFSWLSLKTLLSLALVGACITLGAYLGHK
# Procedure: as §1
# PC-3 cells = assay: Cell viability analysis (MTT) in PC-3 cells; assay type: cell-based; settings: Homo sapiens, PC-3, PC-3 cells, read-out: IC50 (μM) PC3
# Procedure: Cell viability analysis. The effect of individual test agents on cell viability was assessed by using the MTT {[3-(4,5-dimethylthiazol-2-yl)-2,5-diphenyl-2H-tetrazolium bromide]} assay in six to twelve replicates. […] Controls received DMSO vehicle at a concentration equal to that in drug-treated cells. […] Supernatants were removed from the wells, and the reduced MTT dye was solubilized in 200 μl/well DMSO. Absorbance at 570 nm was determined on a plate reader.
# (§2) Determination of IC50 values. Data from cell viability and FP assays were analyzed by using the CalcuSyn software (Biosoft, Ferguson, Mo.) to determine IC50 values, in which the calculation was based on the medium effect equation (18), i.e., Log(fa/fu)=m log(D)−m log(Dm) (equation 1), where fa and fu denote fraction affected and unaffected, respectively; m represents the Hill-type coefficient signifying the sigmoidicity of the dose-effect curve; D and Dm are the dose used and IC50, respectively.
# [1] = MTT assay (IC50 for MTT, Tables 1-9); assay type: cell-based; settings: cell line and unit inferred
# Procedure: Cell viability analysis. The effect of individual test agents on cell viability was assessed by using the MTT {[3-(4,5-dimethylthiazol-2-yl)-2,5-diphenyl-2H-tetrazolium bromide]} assay in six to twelve replicates. Cells were seeded and incubated in 96-well, flat-bottomed plates in serum-free media for 24 h, and were exposed to various concentrations of test agents dissolved in DMSO (final concentration, 0.1%) in serum-free RPMI 1640 medium for different time intervals. Controls received DMSO vehicle at a concentration equal to that in drug-treated cells. The medium was removed, replaced by 200 μl of 0.5 mg/ml of MTT in 10% FBS-containing RPMI-1640 medium, and cells were incubated in the CO2 incubator at 37° C. for 2 h. Supernatants were removed from the wells, and the reduced MTT dye was solubilized in 200 μl/well DMSO. Absorbance at 570 nm was determined on a plate reader.
# as §2
# [2] = WB (IC50 for WB, Tables 1-9); assay type: cell-based; settings: marker, cell line and unit inferred
# Procedure: Immunoblotting. Cells in T-75 flasks were collected by scraping, and suspended in 60 μl of phosphate-buffered saline (PBS). Two μl of the suspension was taken for protein analysis using the Bradford assay kit (Bio-Rad, Hercules, Calif.). To the remaining solution was added the same volume of 2×SDS-PAGE sample loading buffer (100 mM Tris-HCl, pH 6.8, 4% SDS, 5% β-mercaptoethanol 20% glycerol, and 0.1% bromophenol blue). The mixture was sonicated briefly, and boiled for 5 min. Equal amounts of proteins were loaded onto 10% SDS-PAGE gels.
# After electrophoresis, protein bands were transferred to nitrocellulose membranes in a semidry transfer cell. The transblotted membrane was washed twice with Tris-buffered saline (TBS) containing 0.1% Tween 20 (TBST). After blocking with TBST containing 5% nonfat milk for 40 min, the membrane was incubated with the appropriate primary antibody in TBST-1% nonfat milk at 4° C. overnight. All primary antibodies were diluted 1:1000 in 1% nonfat milk-containing TBST. After treatment with the primary antibody, the membrane was washed three times with TBST for a total of 15 min, followed by incubation with goat anti-rabbit or anti-mouse IgG-horseradish peroxidase conjugates (diluted 1:5000) for 1 h at room temperature and three washes with TBST for a total of 1 h. The immunoblots were visualized by enhanced chemiluminescence.
# [3] = unit inferred, read-out: IC50 for inhibiting BH3-mediated protein interactions (Bcl-xL)
# [4] = unit inferred, read-out: IC50 for inhibiting BH3-mediated protein interactions (Bcl-2)
# [5] = inhibition of Bak BH3 peptide binding to Bcl-xL, FP, read-out: IC50 Bcl-xl/Bak
# [6] = inhibition of Bak BH3 peptide binding to Bcl-2, FP, read-out: IC50 Bcl-2/Bak
SMILES,IC50 (Bcl-xL; [3]),IC50 (Bcl-2; [4]),IC50 (Bcl-xL; [5]),IC50 (Bcl-2; [6]),IC50 (PC-3 cells),IC50 [1],IC50 [2]
"CCc1ccc(CCOc2ccc(CC3SC(=O)NC3=O)cc2)nc1 (centres unmarked) [PG, pioglitazone, reference compound]",> 50 µM,> 50 µM,,,,,
"CN(CCOc1ccc(CC2SC(=O)NC2=O)cc1)c1ccccn1 (centres unmarked) [RG, rosiglitazone, reference compound]",> 50 µM,> 50 µM,,,,,
C=CCOc1c(C)c(C)c2c(c1C)CCC(C)(COc1ccc(/C=C3\SC(=S)NC3=O)cc1)O2 (centres unmarked) [TG-3],,,4.8 ± 0.5 µM,7.3 ± 0.3 µM,10 ± 1.2 µM,,
C=CCOc1c(C)c(C)c2c(c1C)CCC(C)(COc1ccc(/C=C3\SC(=O)NC3=O)cc1)O2 (centres unmarked) [TG-6],,,6 ± 0.5 µM,5.5 ± 0.4 µM,11 ± 0.8 µM,9 µM,3 µM
C=CCOc1c(C)c(C)c2c(c1C)CCC(C)(COc1ccc(/C=C3\SC(=O)N(CC(=O)OC)C3=O)cc1)O2 (centres unmarked) [TG-9],,,> 50 µM,> 50 µM,> 50 µM,> 50 µM,> 7.5 µM
Cc1c(C)c2c(c(C)c1OC/C=C/c1ccccc1)CCC(C)(COc1ccc(/C=C3\SC(=O)NC3=O)cc1Br)O2 (centres unmarked) [TG-11],,,2.2 ± 0.2 µM,3.1 ± 0.4 µM,6 ± 0.3 µM,,> 7.5 µM
Cc1c(C)c2c(c(C)c1OCc1ccccc1)CCC(C)(COc1ccc(/C=C3\SC(=O)NC3=O)cc1)O2 (centres unmarked) [TG-12],,,14 ± 1.1 µM,18 ± 0.9 µM,18 ± 1.3 µM,,3.6 µM
CC(C)=CCOc1c(C)c(C)c2c(c1C)CCC(C)(COc1ccc(/C=C3\SC(=O)NC3=O)cc1)O2 (centres unmarked) [TG-14],,,4.5 ± 0.4 µM,4.8 ± 0.4 µM,9 ± 1 µM,,7 µM
O=C1NC(=O)/C(=C/c2ccc(OCC3CCc4ccccc4C3)cc2)S1 (centres unmarked) [TG-15],,,16 ± 0.5 µM,18 ± 0.9 µM,12 ± 0.9 µM,,3.8 µM
COc1cc(/C=C2\SC(=O)NC2=O)ccc1OCC1(C)CCc2c(C)c(OCC=C(C)C)c(C)c(C)c2O1 (centres unmarked) [TG-16],,,6.5 ± 0.5 µM,4.8 ± 0.5 µM,4.7 ± 0.2 µM,,5.6 µM
CC(C)=CCOc1c(C)c(C)c2c(c1C)CCC(C)(COc1ccc(/C=C3\SC(=O)NC3=O)cc1C)O2 (centres unmarked) [TG-17],,,2.6 ± 0.3 µM,3.1 ± 0.4 µM,4.8 ± 0.3 µM,,3.2 µM
C=CCOc1c(C)c(C)c2c(c1C)CCC(C)(COc1ccc(/C=C3\SC(=O)NC3=O)cc1Br)O2 (centres unmarked) [TG-27],,,2.1 ± 0.2 µM,2.7 ± 0.4 µM,5 ± 0.5 µM,,> 7.5 µM
C=CCOc1c(C)c(C)c2c(c1C)CCC(C)(COc1ccc(/C=C3\SC(=O)NC3=O)cc1OC)O2 (centres unmarked) [TG-28],,,4 ± 0.3 µM,4.4 ± 0.3 µM,5.2 ± 0.5 µM,,2.3 µM
C=CCOc1c(C)c(C)c2c(c1C)CCC(C)(COc1ccc(/C=C3\SC(=O)NC3=O)cc1C)O2 (centres unmarked) [TG-29],,,3 ± 0.3 µM,3.5 ± 0.6 µM,5.1 ± 0.4 µM,,3.6 µM
CC(C)=CCOc1c(C)c(C)c2c(c1C)CCC(C)(COc1ccc(/C=C3\SC(=O)NC3=O)cc1F)O2 (centres unmarked) [TG-30],,,2.7 ± 0.3 µM,3.4 ± 0.5 µM,6 ± 0.4 µM,,7.2 µM
CC(C)=CCOc1c(C)c(C)c2c(c1C)CCC(C)(COc1ccc(/C=C3\SC(=O)NC3=O)cc1-c1ccc(F)cc1)O2 (centres unmarked) [TG-32],,,6.5 ± 0.5 µM,6.6 ± 0.6 µM,5 ± 0.4 µM,,> 7.5 µM
CC(C)=CCOc1c(C)c(C)c2c(c1C)CCC(C)(COc1c(Br)cc(/C=C3\SC(=O)NC3=O)cc1Br)O2 (centres unmarked) [TG-34],,,2 ± 0.2 µM,2.8 ± 0.4 µM,4.4 ± 0.4 µM,,2.7 µM
